Source: PubChem BioAssay (NCI)
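Step 1: Grow cells in 96-well plates. Step 2: Expose to compound for 48 hours at 5 concentrations. Step 3: Interpolate endpoints linearly; if unreached, use highest concentration. TGI: concentration producing complete growth inhibition.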

Assays:
Assay in all cases: NCI-60 cell line screen, 48 h
786-0 renal = system: 786-0 renal
MDA-N = system: MDA-N
NCI-H23 lung = system: NCI-H23 lung
NCI-H460 lung = system: NCI-H460 lung
OVCAR-5 ovarian = system: OVCAR-5 ovarian
SNB-19 CNS = system: SNB-19 CNS
SR leukemia = system: SR leukemia
U251 CNS = system: U251 CNS
UACC-62 melanoma = system: UACC-62 melanoma

SMILES	TGI (786-0 renal) [µM]	TGI (MDA-N) [µM]	TGI (NCI-H23 lung) [µM]	TGI (NCI-H460 lung) [µM]	TGI (OVCAR-5 ovarian) [µM]	TGI (SNB-19 CNS) [µM]	TGI (SR leukemia) [µM]	TGI (U251 CNS) [µM]	TGI (UACC-62 melanoma) [µM]
COC(=O)NN(C(=O)OC)c1c(-c2ccccc2)nc(SC)n1N	> 100	> 100	> 100	> 100	> 100	> 100	> 100	> 100	> 100
CCOC1CC(=O)c2c(Br)sc(Br)c21 (configuration not stated)	94.7	49.6	37.4	43.1	45.3	51.9	60.3	33.1	35.1
O=[N+]([O-])C(=C(N1CCCCC1)N1CCCCC1)/C(Cl)=C(\Cl)Br	67.8	> 100	41.2	> 100	–	87.1	30.9	56.3	28.1
O=C(NC(Cc1c[nH]c2ccccc12)C(=O)O)/C(=C/c1ccccc1O)NC(=O)c1ccccc1 (configuration not stated)	46.9	> 100	> 100	> 100	> 100	> 100	> 100	> 100	> 100
Cc1cn2c(/C=C3/C(=O)Nc4cccc(Cl)c43)c(Cl)nc2s1	> 100	> 100	> 100	–	> 100	> 100	> 100	27.3	> 100
COc1ccc(CC(CO)NC(=O)OCc2ccccc2)cc1Oc1ccc(CC(CO)NC(=O)OCc2ccccc2)cc1 (configuration not stated)	–	54.1	33.8	66.6	30.9	51.8	> 100	63.9	29.5
O=C1CCC(=Nc2ccc(Cl)cc2)N1C(=O)COc1ccc(OCC(=O)N2C(=O)CSC2=Nc2ccc(Cl)cc2)cc1	> 100	> 100	> 100	> 100	> 100	> 100	–	> 100	> 100
Nn1c(CCCCCCCCc2nnc(COc3c(O)ccc4ccccc34)n2N)nnc1COc1c(O)ccc2ccccc12	> 100	> 100	> 100	> 100	> 100	> 100	–	> 100	> 100
CCCCOC(C)(C)/C=C/C(O)[C@](C)(O)[C@H]1[C@H](O)C[C@@]2(C)[C@@H]3CCc4c(cc(OC5OC(CO)C(O)C(O)C5O)c(O)c4C)C3(C)C(=O)C[C@]12C (some centres not stated)	> 100	> 100	> 100	> 100	> 100	> 100	> 100	> 100	> 100
Cc1cc(C)c2c(=O)n(CN3CC4Nc5ccccc5C4C3)sc2n1 (configuration not stated)	33.8	44.3	47.6	46.2	42.4	> 100	> 100	> 100	71.4
OC[C@@H](O)[C@H]1NC[C@@H](O)[C@H]1O	> 100	> 100	> 100	> 100	> 100	> 100	> 100	> 100	> 100
CC(=O)N/N=C1/NN(C(C)=O)C2(S1)C(=O)Nc1ccc(Br)cc12 (configuration not stated)	> 100	–	> 100	> 100	> 100	> 100	> 100	> 100	> 100
